Data taken from ChEMBL document CHEMBL1127101, “Interaction of rigid polyamine analogues with the NMDA receptor complex from rat brain” (Bioorg Med Chem Lett, 1993).

Columns and labels:
Glutamate NMDA receptor [1] = experiment: Tested for the binding of [3H]dizocilpine to DEPC (diethylpyrocarbonate) membranes of rat
Glutamate NMDA receptor [2] = experiment: Tested for the binding of [3H]dizocilpine to NMDA receptor in rat brain membranes in the presence of 500 uM spermidine; format: cell membranes
[3] = Tested for the increase in [Ca2+] produced by 30 uM of the compound; format: functional

| Compound | IC50 (Glutamate NMDA receptor [1]) | IC50 (Glutamate NMDA receptor [2]) | Increase [3] |
| --- | --- | --- | --- |
| Cc1cc2nc3cc(C)c(N)cc3[n+](-c3ccccc3)c2cc1N | 3.95 µM | 2.21 µM | 77.9% |
| Nc1ccc2nc3ccc(N)cc3[n+](-c3ccccc3)c2c1 [PHENOSAFRANINE] | 2.7 µM | 4.33 µM | 78.4% |
| CC[n+]1c(-c2ccccc2)c2cc(N)ccc2c2ccc(N)cc21 [HOMIDIUM BROMIDE] | 3.13 µM | 7.34 µM | 84.7% |
| CC[N+](C)(CC)CCC[n+]1c(-c2ccccc2)c2cc(N)ccc2c2ccc(N)cc21 [PROPIDIUM] | 6.8 µM | > 1000 µM | 97.6% |
